Assay results reported in patent US20240124427A1, “HYDROXYHETEROCYCLOALKANE-CARBAMOYL DERIVATIVES” (Idorsia Pharmaceuticals Ltd, priority 2021, published 2024).

Target: human Gal-3 (hGal-3) (Homo sapiens (Human), UniProt P17931)
Assay: Competitive binding assay: biotinylated hGal-3 binding to microplate-adsorbed asialofetuin (ASF)
Conditions: Activity on hGal-3; mean values of several measurements; mixture of diastereomers measured where not separated
Method: The inhibitory activity of compounds is determined in competitive binding assays. This spectrophotometric assay measures the binding of biotinylated human Gal-3 (hGal-3) or human Gal-1 (hGal-1), respectively, to a microplate-adsorbed glycoprotein, asialofetuin (ASF) (Proc Natl Acad Sci USA. 2013 Mar 26;110(13):5052-7.). Alternatively, and preferably, a human Gal-1 version in which all six cysteines are substituted by serines may be used.
Briefly, compounds are serially diluted in DMSO (working dilutions).
Plates are incubated for 3 hours at 4° C., then washed with cold assay buffer (3×50 uL), incubated for 1 hour with 25 μL/well of a streptavidin-peroxidase solution (diluted in assay buffer to 80 ng/mL) at 4° C., followed by further washing steps with assay buffer (3×50 uL). Finally, 25 μL/well of ABTS substrate is added.
The calculated IC50 values may fluctuate depending on the daily assay performance. Fluctuations of this kind are known to those skilled in the art. IC50 values from several measurements are given as mean values.

Chain of human Gal-3 (hGal-3) (P17931 whole entry): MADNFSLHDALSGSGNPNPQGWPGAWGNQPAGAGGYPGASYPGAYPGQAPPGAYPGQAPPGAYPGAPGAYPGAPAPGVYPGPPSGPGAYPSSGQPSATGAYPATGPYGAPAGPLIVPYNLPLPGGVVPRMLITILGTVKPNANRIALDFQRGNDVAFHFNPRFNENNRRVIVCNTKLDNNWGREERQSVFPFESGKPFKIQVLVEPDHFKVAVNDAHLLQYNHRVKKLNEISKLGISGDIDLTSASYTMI

| IC50 [nM] | Structure (SMILES) |
| --- | --- |
| 186 | CO[C@@H]1[C@@H](n2cc(-c3cc(F)c(F)c(F)c3)nn2)[C@@H](O)[C@@H](CO)O[C@H]1C(=O)N(c1cc(C)cc(Br)c1)[C@@H]1COC[C@H]1O [Example 37, (2R,3R,4S,5R,6R)-N-(3-bromo-5-methylphenyl)-5-hydroxy-6-(hydroxymethyl)-N-((3R,4S)-4-hydroxytetrahydrofuran-3-yl)-3-methoxy-4-(4-(3,4,5-trifluorophenyl)-1H-1,2,3-triazol-1-yl)tetrahydro-2H-pyran-2-carboxamide] |
| 113 | COc1cc(C#N)cc(N(C(=O)[C@@H]2O[C@H](CO)[C@H](O)[C@H](n3cc(-c4cc(F)c(F)c(F)c4)nn3)[C@H]2OC)[C@@H]2COC[C@H]2O)c1 [Example 38, (2R,3R,4S,5R,6R)-N-(3-cyano-5-methoxyphenyl)-5-hydroxy-6-(hydroxymethyl)-N-((3R,4S)-4-hydroxytetrahydrofuran-3-yl)-3-methoxy-4-(4-(3,4,5-trifluorophenyl)-1H-1,2,3-triazol-1-yl)tetrahydro-2H-pyran-2-carboxamide] |
| 69 | CO[C@@H]1[C@@H](n2cc(-c3cc(F)c(F)c(F)c3)nn2)[C@@H](O)[C@@H](CO)O[C@H]1C(=O)N(c1cc(C)cc(C#N)c1)[C@@H]1COC[C@H]1O [Example 39, (2R,3R,4S,5R,6R)-N-(3-cyano-5-methylphenyl)-5-hydroxy-6-(hydroxymethyl)-N-((3R,4S)-4-hydroxytetrahydrofuran-3-yl)-3-methoxy-4-(4-(3,4,5-trifluorophenyl)-1H-1,2,3-triazol-1-yl)tetrahydro-2H-pyran-2-carboxamide] |
| 145 | CO[C@@H]1[C@@H](n2cc(-c3cc(F)c(F)c(F)c3)nn2)[C@@H](O)[C@@H](CO)O[C@H]1C(=O)N(c1cc(F)cc(C#N)c1)[C@@H]1COC[C@H]1O [Example 40, (2R,3R,4S,5R,6R)-N-(3-cyano-5-fluorophenyl)-5-hydroxy-6-(hydroxymethyl)-N-((3R,4S)-4-hydroxytetrahydrofuran-3-yl)-3-methoxy-4-(4-(3,4,5-trifluorophenyl)-1H-1,2,3-triazol-1-yl)tetrahydro-2H-pyran-2-carboxamide] |
| 63 | CO[C@@H]1[C@@H](n2cc(-c3ccc(Br)c(F)c3F)nn2)[C@@H](O)[C@@H](CO)O[C@H]1C(=O)N(c1cc(Cl)cc(Cl)c1)[C@@H]1COC[C@H]1O [Example 41, (2R,3R,4S,5R,6R)-4-(4-(4-bromo-2,3-difluorophenyl)-1H-1,2,3-triazol-1-yl)-N-(3,5-dichlorophenyl)-5-hydroxy-6-(hydroxymethyl)-N-((3R,4S)-4-hydroxytetrahydrofuran-3-yl)-3-methoxytetrahydro-2H-pyran-2-carboxamide] |
| 37 | CO[C@@H]1[C@@H](n2cc(-c3ccc(Br)c(F)c3F)nn2)[C@@H](O)[C@@H](CO)O[C@H]1C(=O)N(c1cc(Br)cc(C#N)c1)[C@@H]1COC[C@H]1O [Example 42, (2R,3R,4S,5R,6R)-4-(4-(4-bromo-2,3-difluorophenyl)-1H-1,2,3-triazol-1-yl)-N-(3-bromo-5-cyanophenyl)-5-hydroxy-6-(hydroxymethyl)-N-((3R,4S)-4-hydroxytetrahydrofuran-3-yl)-3-methoxytetrahydro-2H-pyran-2-carboxamide] |
| 33 | CO[C@@H]1[C@@H](n2cc(-c3ccc(Br)c(F)c3F)nn2)[C@@H](O)[C@@H](CO)O[C@H]1C(=O)N(c1cc(C)cc(Br)c1)[C@@H]1COC[C@H]1O [Example 43, (2R,3R,4S,5R,6R)-4-(4-(4-bromo-2,3-difluorophenyl)-1H-1,2,3-triazol-1-yl)-N-(3-bromo-5-methylphenyl)-5-hydroxy-6-(hydroxymethyl)-N-((3R,4S)-4-hydroxytetrahydrofuran-3-yl)-3-methoxytetrahydro-2H-pyran-2-carboxamide] |
| 81 | CO[C@@H]1[C@@H](n2cc(-c3cc(F)c(C)c(F)c3)nn2)[C@@H](O)[C@@H](CO)O[C@H]1C(=O)N(c1cc(Cl)cc(Cl)c1)[C@@H]1COC[C@H]1O [Example 44, (2R,3R,4S,5R,6R)-N-(3,5-dichlorophenyl)-4-(4-(3,5-difluoro-4-methylphenyl)-1H-1,2,3-triazol-1-yl)-5-hydroxy-6-(hydroxymethyl)-N-((3R,4S)-4-hydroxytetrahydrofuran-3-yl)-3-methoxytetrahydro-2H-pyran-2-carboxamide] |
| 59 | CO[C@@H]1[C@@H](n2cc(-c3cc(F)c(C)c(F)c3)nn2)[C@@H](O)[C@@H](CO)O[C@H]1C(=O)N(c1cc(Br)cc(Br)c1)[C@@H]1COC[C@H]1O [Example 45, (2R,3R,4S,5R,6R)-N-(3,5-dibromophenyl)-4-(4-(3,5-difluoro-4-methylphenyl)-1H-1,2,3-triazol-1-yl)-5-hydroxy-6-(hydroxymethyl)-N-((3R,4S)-4-hydroxytetrahydrofuran-3-yl)-3-methoxytetrahydro-2H-pyran-2-carboxamide] |
| 81 | CO[C@@H]1[C@@H](n2cc(-c3cc(F)c(C)c(F)c3)nn2)[C@@H](O)[C@@H](CO)O[C@H]1C(=O)N(c1cc(Br)cc(C#N)c1)[C@@H]1COC[C@H]1O [Example 46, (2R,3R,4S,5R,6R)-N-(3-bromo-5-cyanophenyl)-4-(4-(3,5-difluoro-4-methylphenyl)-1H-1,2,3-triazol-1-yl)-5-hydroxy-6-(hydroxymethyl)-N-((3R,4S)-4-hydroxytetrahydrofuran-3-yl)-3-methoxytetrahydro-2H-pyran-2-carboxamide] |
| 72 | CO[C@@H]1[C@@H](n2cc(-c3cc(F)c(C)c(F)c3)nn2)[C@@H](O)[C@@H](CO)O[C@H]1C(=O)N(c1cc(C)cc(Br)c1)[C@@H]1COC[C@H]1O [Example 47, (2R,3R,4S,5R,6R)-N-(3-bromo-5-methylphenyl)-4-(4-(3,5-difluoro-4-methylphenyl)-1H-1,2,3-triazol-1-yl)-5-hydroxy-6-(hydroxymethyl)-N-((3R,4S)-4-hydroxytetrahydrofuran-3-yl)-3-methoxytetrahydro-2H-pyran-2-carboxamide] |
| 29 | CO[C@@H]1[C@@H](n2cc(-c3ccc(C)c(F)c3F)nn2)[C@@H](O)[C@@H](CO)O[C@H]1C(=O)N(c1cc(Cl)cc(Cl)c1)[C@@H]1COC[C@H]1O [Example 48, (2R,3R,4S,5R,6R)-N-(3,5-dichlorophenyl)-4-(4-(2,3-difluoro-4-methylphenyl)-1H-1,2,3-triazol-1-yl)-5-hydroxy-6-(hydroxymethyl)-N-((3R,4S)-4-hydroxytetrahydrofuran-3-yl)-3-methoxytetrahydro-2H-pyran-2-carboxamide] |
| 18 | CO[C@@H]1[C@@H](n2cc(-c3ccc(C)c(F)c3F)nn2)[C@@H](O)[C@@H](CO)O[C@H]1C(=O)N(c1cc(Br)cc(C#N)c1)[C@@H]1COC[C@H]1O [Example 49, (2R,3R,4S,5R,6R)-N-(3-bromo-5-cyanophenyl)-4-(4-(2,3-difluoro-4-methylphenyl)-1H-1,2,3-triazol-1-yl)-5-hydroxy-6-(hydroxymethyl)-N-((3R,4S)-4-hydroxytetrahydrofuran-3-yl)-3-methoxytetrahydro-2H-pyran-2-carboxamide] |
| 34 | CO[C@@H]1[C@@H](n2cc(-c3ccc(C)c(F)c3F)nn2)[C@@H](O)[C@@H](CO)O[C@H]1C(=O)N(c1cc(C)cc(Br)c1)[C@@H]1COC[C@H]1O [Example 50, (2R,3R,4S,5R,6R)-N-(3-bromo-5-methylphenyl)-4-(4-(2,3-difluoro-4-methylphenyl)-1H-1,2,3-triazol-1-yl)-5-hydroxy-6-(hydroxymethyl)-N-((3R,4S)-4-hydroxytetrahydrofuran-3-yl)-3-methoxytetrahydro-2H-pyran-2-carboxamide] |
